What all share (assay type): in vivo
Conditions in all cases: 250 g/ha, evaluated after 13 days, five-point scale

Experiment [1] concerns Setaria faberi (SETFA). Description: Pre-emergence herbicide glasshouse test. How it is done: (§1) Seeds of a variety of test species are sown in standard soil in pots Amaranthus retoflexus (AMARE), Amaranthus palmeri (AMAPA), Echinochloa crus-galli (ECHCG), Ipomoea hederacea (IPOHE), Setaria faberi (SETFA). After cultivation for one day (pre-emergence) or after 8 days cultivation (post-emergence) under controlled conditions in a glasshouse (at 24/16° C., day/night; 14 hours light; 65% humidity), the plants are sprayed with an aqueous spray solution derived from the formulation of the technical active ingredient in acetone/water (50:50) solution containing 0.5% Tween 20 (polyoxyethelyene sorbitan monolaurate, CAS RN 9005-64-5). Compounds are applied at 250 g/ha unless otherwise stated. The test plants are then grown in a glasshouse under controlled conditions in a glasshouse (at 24/16° C., day/night; 14 hours light; 65% humidity) and watered twice daily. After 13 days for pre and post-emergence, the test is evaluated for the percentage damage caused to the plant. The biological activities are shown in the following table on a five-point scale (5=81-100%; 4=61-80%; 3=41-60%; 2=21-40%; 1=0-20%).

For experiment [2], the system named is Ipomoea hederacea (IPOHE). Description: Pre-emergence herbicide glasshouse test. How it is done:
as §1

The subject of experiment [3] is Echinochloa crus-galli (ECHCG). Description: Pre-emergence herbicide glasshouse test. How it is done: as §1
In experiment [4] the test system is Amaranthus palmeri (AMAPA). Description: Pre-emergence herbicide glasshouse test. How it is done: as §1
For experiment [5], the system named is Amaranthus retoflexus (AMARE). Description: Pre-emergence herbicide glasshouse test. As to the method: as §1
Experiment [6] concerns Setaria faberi (SETFA). Description: Post-emergence herbicide glasshouse test. How it is done: as §1
Experiment [7] relates to Ipomoea hederacea (IPOHE). Description: Post-emergence herbicide glasshouse test. How it is done: as §1
The subject of experiment [8] is Echinochloa crus-galli (ECHCG). Description: Post-emergence herbicide glasshouse test. How it is done:
as §1

For experiment [9], the system named is Amaranthus palmeri (AMAPA). Description: Post-emergence herbicide glasshouse test. How it is done:
as §1

Experiment [10] deals with Amaranthus retoflexus (AMARE). Description: Post-emergence herbicide glasshouse test. How it is done: as §1

This note sets out measurements from patent publication US20250179051A1, “PYRIMIDINLY-OXY-QUINOLINE BASED HERBICIDAL COMPOUNDS” (SYNGENTA CROP PROTECTION AG, priority 2022, published 2025).

SMILES strings stand for the structures.

As to `CC(Br)c1nc(C(F)(F)F)nc2cccc(Oc3ncc(Cl)cn3)c12` (centres unmarked) [Compound 1.001, 4-(1-bromoethyl)-5-(5-chloropyrimidin-2-yl)oxy-2-(trifluoromethyl)quinazoline], the entries for the “percentage damage caused to the plant, SETFA” value with Setaria faberi (SETFA) [1] and in the experiment on Setaria faberi (SETFA) [6] were 2 (2=21-40%) and 1 (1=0-20%), respectively. Further, the “percentage damage caused to the plant, IPOHE” value in [2] is given as 1 (1=0-20%); in [7], 3 (3=41-60%). The “percentage damage caused to the plant, ECHCG” value in experiment [3] and in [8] was 1 (1=0-20%) each time. The “percentage damage caused to the plant, AMAPA” value in [4] and in experiment [9] was 3 (3=41-60%) each time. Further, the “percentage damage caused to the plant, AMARE” value is 2 (2=21-40%) in [5] and 3 (3=41-60%) in experiment [10].
For the compound `CC(=NOCC1CC1)c1nc(C(F)(F)F)nc2cccc(Oc3ncc(Cl)cn3)c12` [Compound 1.003], the “percentage damage caused to the plant, SETFA” value in the experiment on Setaria faberi (SETFA) [1] and with Setaria faberi (SETFA) [6] was 1 (1=0-20%) each time. Further, the “percentage damage caused to the plant, IPOHE” value in experiment [2] and in experiment [7] was 1 (1=0-20%) each time. For the same compound, the “percentage damage caused to the plant, ECHCG” value in [3] and in experiment [8] was 1 (1=0-20%) each time. Also, the “percentage damage caused to the plant, AMAPA” value in [4] and in experiment [9] was 1 (1=0-20%) each time. Moreover, the “percentage damage caused to the plant, AMARE” value in experiment [5] and in [10] was 1 (1=0-20%) each time.
Regarding `FC(F)(F)c1nc(CCC=NOCC2CC2)c2c(Oc3ncc(Cl)cn3)cccc2n1` [Compound 1.005], the “percentage damage caused to the plant, SETFA” value in the experiment with Setaria faberi (SETFA) [1] is listed as 5 (5=81-100%); with Setaria faberi (SETFA) [6], 4 (4=61-80%). Besides, the “percentage damage caused to the plant, IPOHE” value in experiment [2] is 1 (1=0-20%); in experiment [7], 2 (2=21-40%). The “percentage damage caused to the plant, ECHCG” value in experiment [3] and in experiment [8] was 4 (4=61-80%) in each case. The “percentage damage caused to the plant, AMAPA” value in [4] and in experiment [9] was 5 (5=81-100%) in each case. For the same compound, the “percentage damage caused to the plant, AMARE” value was 3 (3=41-60%) in experiment [5] and 4 (4=61-80%) in experiment [10].
For the compound `CCON=CCc1nc(C(F)(F)F)nc2cccc(Oc3ncc(Cl)cn3)c12` [Compound 1.006], the “percentage damage caused to the plant, SETFA” value in the experiment on Setaria faberi (SETFA) [1] and in the experiment on Setaria faberi (SETFA) [6] was 1 (1=0-20%) each time. Besides, the “percentage damage caused to the plant, IPOHE” value in [2] and in experiment [7] was 1 (1=0-20%) in each case. Further, the “percentage damage caused to the plant, ECHCG” value in experiment [3] and in [8] was 1 (1=0-20%) each time. Also, the results for the “percentage damage caused to the plant, AMAPA” value in [4] and in experiment [9] were 3 (3=41-60%) and 2 (2=21-40%), respectively. For the same compound, the “percentage damage caused to the plant, AMARE” value in experiment [5] was 1 (1=0-20%); in experiment [10] it was 3 (3=41-60%).
`Fc1ccc(-c2nc(C(F)(F)F)nc3cccc(Oc4ncc(Cl)cc4F)c23)cc1` [Compound 1.040]: the “percentage damage caused to the plant, SETFA” value in the experiment with Setaria faberi (SETFA) [1] and with Setaria faberi (SETFA) [6] was 1 (1=0-20%) each time. Moreover, the “percentage damage caused to the plant, IPOHE” value is on record as 1 (1=0-20%) in experiment [2] and 2 (2=21-40%) in [7]. For the same compound, the “percentage damage caused to the plant, ECHCG” value in experiment [3] and in [8] was 1 (1=0-20%) throughout. For the same compound, the “percentage damage caused to the plant, AMARE” value was 1 (1=0-20%) in experiment [5] and 2 (2=21-40%) in [10].
As for `Fc1ccc(-c2nc(C(F)(F)F)nc3cccc(Oc4ncc(Cl)cn4)c23)cc1` [Compound 1.042], the “percentage damage caused to the plant, SETFA” value in the experiment on Setaria faberi (SETFA) [1] and with Setaria faberi (SETFA) [6] was 1 (1=0-20%) throughout. The “percentage damage caused to the plant, IPOHE” value in [2] is on record as 1 (1=0-20%); in [7], 3 (3=41-60%). Also, the “percentage damage caused to the plant, ECHCG” value in experiment [3] and in experiment [8] was 1 (1=0-20%) throughout. For the same compound, the “percentage damage caused to the plant, AMARE” value is given as 1 (1=0-20%) in [5] and 3 (3=41-60%) in [10].
With `C=CCCc1nc(C(F)(F)F)nc2cccc(Oc3ncc(Cl)cn3)c12` [Compound 1.043, 4-but-3-enyl-5-(5-chloropyrimidin-2-yl)oxy-2-(trifluoromethyl)quinazoline], the “percentage damage caused to the plant, SETFA” value is recorded as 5 (5=81-100%) in the experiment on Setaria faberi (SETFA) [1] and 4 (4=61-80%) in the experiment on Setaria faberi (SETFA) [6]. Also, the “percentage damage caused to the plant, IPOHE” value in experiment [2] is given as 1 (1=0-20%); in experiment [7], 3 (3=41-60%). In addition, the “percentage damage caused to the plant, ECHCG” value in experiment [3] is 5 (5=81-100%); in experiment [8], 4 (4=61-80%). Moreover, the “percentage damage caused to the plant, AMARE” value in [5] was 4 (4=61-80%); in experiment [10], 5 (5=81-100%).
`FC(F)(F)c1nc(CCC2CCOCC2)c2c(Oc3ncc(Cl)cn3)cccc2n1` [Compound 1.044]: the “percentage damage caused to the plant, SETFA” value with Setaria faberi (SETFA) [1] and in the experiment with Setaria faberi (SETFA) [6] was 5 (5=81-100%) each time. Besides, the “percentage damage caused to the plant, IPOHE” value in experiment [2] was 5 (5=81-100%); in experiment [7] it was 4 (4=61-80%). Moreover, the “percentage damage caused to the plant, ECHCG” value in experiment [3] and in [8] was 5 (5=81-100%) each time. Moreover, the “percentage damage caused to the plant, AMARE” value in [5] and in [10] was 5 (5=81-100%) each time.
With `N#CCCc1nc(C(F)(F)F)nc2cccc(Oc3ncc(Cl)cn3)c12` [Compound 1.046, 3-[5-(5-chloropyrimidin-2-yl)oxy-2-(trifluoromethyl)quinazolin-4-yl]propanenitrile], the “percentage damage caused to the plant, SETFA” value in the experiment with Setaria faberi (SETFA) [1] is on record as 5 (5=81-100%); in the experiment on Setaria faberi (SETFA) [6] it was 2 (2=21-40%). Further, the “percentage damage caused to the plant, IPOHE” value in experiment [2] was 5 (5=81-100%); in [7], 4 (4=61-80%). Also, the results for the “percentage damage caused to the plant, ECHCG” value in experiment [3] and in [8] were 5 (5=81-100%) and 2 (2=21-40%), respectively. Moreover, the “percentage damage caused to the plant, AMAPA” value in [4] and in experiment [9] was 5 (5=81-100%) in each case. For the same compound, the “percentage damage caused to the plant, AMARE” value in experiment [5] was 5 (5=81-100%).
Consider `Fc1cnc(Oc2cccc3nc(C(F)(F)F)nc(CCC4CC4)c23)nc1` [Compound 1.064], for which the “percentage damage caused to the plant, IPOHE” value in experiment [2] is recorded as 5 (5=81-100%); in experiment [7], 4 (4=61-80%). In addition, the “percentage damage caused to the plant, ECHCG” value in experiment [3] and in experiment [8] was 4 (4=61-80%) in each case. The “percentage damage caused to the plant, AMAPA” value in experiment [4] is 5 (5=81-100%); in experiment [9], 4 (4=61-80%). The “percentage damage caused to the plant, AMARE” value in experiment [5] and in experiment [10] was 5 (5=81-100%) each time.
